Literature values as cited in patent US11744878B2 (priority 2020, dated 2023).
Where no end group is shown, it is not given here.

Experiments:
[1] = tested on: SARS coronavirus; conditions: cited from earlier work
[2] = tested on: COVID-19; conditions: most critically ill patients with COVID-19; cited from earlier work
[3] = in vivo; cited from earlier work
[4] = tested on: pancreas; conditions: cited from earlier work

CC[C@H](C)[C@H](NC(=O)[C@H](CO)NC(=O)[C@H](CC(N)=O)NC(=O)[C@H](CC(C)C)NC(=O)[C@H](Cc1ccc(O)cc1)NC(=O)[C@H](CCCCN)NC(=O)[C@H](CCCCN)NC(=O)[C@@H](NC(=O)[C@H](C)NC(=O)[C@H](CCSC)NC(=O)[C@H](CCC(N)=O)NC(=O)[C@H](CCCCN)NC(=O)[C@H](CCCNC(=N)N)NC(=O)[C@H](CC(C)C)NC(=O)[C@H](CCCNC(=N)N)NC(=O)[C@@H](NC(=O)[C@H](Cc1ccc(O)cc1)NC(=O)[C@H](CC(N)=O)NC(=O)[C@H](CC(=O)O)NC(=O)[C@@H](NC(=O)[C@H](Cc1ccccc1)NC(=O)[C@@H](NC(=O)[C@H](C)NC(=O)[C@H](CC(=O)O)NC(=O)[C@H](CO)NC(=O)[C@@H](N)Cc1c[nH]cn1)C(C)C)[C@@H](C)O)[C@@H](C)O)C(C)C)C(=O)N[C@@H](CC(C)C)C(=O)N[C@@H](CC(N)=O)C(N)=O [RLF-100, aviptadil]
replication of the SARS coronavirus [1]: blocked replication | recovery from respiratory failure [2]: rapid recovery from respiratory failure

secretin (HSDGTFTSELSRLRDSARLQRLLQGLV; not fully specified (C-terminus); ends and bridges not checked; UniProt P63298 33-59, looked up) [3055.5 MW (27 amino acid) gastrointestinal peptide hormone originally extracted from the porcine duodenum]
crossing of the blood-brain barrier [3]: rapidly crosses the blood-brain barrier | distribution in the body [3]: highly and rapidly distributed | pancreatic duct diameter ([4]; in vivo): increases the pancreatic duct diameter | sphincter of Oddi ([4]; in vivo): causes sphincter of Oddi relaxation | volume and bicarbonate content of pancreatic juice ([4]; primary action): increase the volume and bicarbonate content

synthetic porcine secretin: new synthetic porcine secretin, manufactured by ChiRhoClin, Inc. (HSDGTFTSELSRLRDSARLQRLLQGLV; not fully specified (C-terminus); ends and bridges not checked; UniProt P63298 33-59, looked up)
effectiveness as a pancreatic secretagogue ([4]; compared with secretin extracted from porcine duodenum): equally effective
